Experimental data as given in ChEMBL document CHEMBL5226286, “The application of isatin-based multicomponent-reactions in the quest for new bioactive and druglike molecules” (Eur J Med Chem, 2021).
pIC50: −log10 of the molar value. Converted amounts (≈) assume the structure as drawn.

Key:
MCF7 = assay: Antiproliferative activity against human MCF7 cells by MTT reduction assay; assay type: functional, cell-based
T47D = assay: Antiproliferative activity against human T47D cells by MTT reduction assay; assay type: functional, cell-based
MDA-MB-231 [1] = assay: Antiproliferative activity against human MDA-MB-231 cells by MTT reduction assay; assay type: functional, cell-based
Pseudomonas aeruginosa [2] = assay: Antibacterial activity against multidrug resistant Pseudomonas aeruginosa 025; assay type: functional
Pseudomonas aeruginosa [3] = assay: Antibacterial activity against multidrug resistant Pseudomonas aeruginosa 034; assay type: functional
Aspergillus fumigatus = assay: Antifungal activity against Aspergillus fumigatus RCMB 02568 assessed as zone of inhibition; assay type: functional
[4] = system: Syncephalastrum racemosum; assay: Antifungal activity against Syncephalastrum racemosum RCMB 05922 assessed as zone of inhibition; assay type: functional
Geotrichum candidum = assay: Antifungal activity against Geotrichum candidum RCMB 05097 assessed as zone of inhibition; assay type: functional
Candida albicans [5] = assay: Antifungal activity against Candida albicans RCMB 05036 assessed as zone of inhibition; assay type: functional
Candida albicans [6] = assay: Antifungal activity against Candida albicans; assay type: functional
Candida tropicalis = assay: Antifungal activity against Candida tropicalis; assay type: functional
Nakaseomyces glabratus = assay: Antifungal activity against Candida glabrata; assay type: functional
Acetylcholinesterase = Acetylcholinesterase (Homo sapiens, UniProt P22303); assay: Inhibition of AChE (unknown origin)
Sequence of Acetylcholinesterase (P22303 whole entry): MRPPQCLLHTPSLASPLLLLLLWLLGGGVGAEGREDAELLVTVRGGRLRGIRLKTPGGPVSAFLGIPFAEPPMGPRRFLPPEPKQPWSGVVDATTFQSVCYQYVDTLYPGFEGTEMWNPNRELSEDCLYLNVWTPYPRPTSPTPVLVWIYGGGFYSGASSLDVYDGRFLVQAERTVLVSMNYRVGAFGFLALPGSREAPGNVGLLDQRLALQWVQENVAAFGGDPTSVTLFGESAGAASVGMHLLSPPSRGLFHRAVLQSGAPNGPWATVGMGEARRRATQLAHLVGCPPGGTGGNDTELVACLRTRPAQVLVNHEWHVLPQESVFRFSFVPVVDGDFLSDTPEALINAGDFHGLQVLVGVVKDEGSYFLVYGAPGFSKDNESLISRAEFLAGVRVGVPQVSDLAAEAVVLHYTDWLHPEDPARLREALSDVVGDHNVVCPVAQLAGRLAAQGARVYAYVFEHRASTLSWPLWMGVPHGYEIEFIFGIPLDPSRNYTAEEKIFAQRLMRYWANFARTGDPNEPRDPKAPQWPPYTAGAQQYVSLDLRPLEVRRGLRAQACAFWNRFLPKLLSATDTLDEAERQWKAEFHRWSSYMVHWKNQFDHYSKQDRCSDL

Cholinesterase = Cholinesterase (Homo sapiens, UniProt P06276); assay: Inhibition of BChE (unknown origin)
Sequence of Cholinesterase (P06276 whole entry): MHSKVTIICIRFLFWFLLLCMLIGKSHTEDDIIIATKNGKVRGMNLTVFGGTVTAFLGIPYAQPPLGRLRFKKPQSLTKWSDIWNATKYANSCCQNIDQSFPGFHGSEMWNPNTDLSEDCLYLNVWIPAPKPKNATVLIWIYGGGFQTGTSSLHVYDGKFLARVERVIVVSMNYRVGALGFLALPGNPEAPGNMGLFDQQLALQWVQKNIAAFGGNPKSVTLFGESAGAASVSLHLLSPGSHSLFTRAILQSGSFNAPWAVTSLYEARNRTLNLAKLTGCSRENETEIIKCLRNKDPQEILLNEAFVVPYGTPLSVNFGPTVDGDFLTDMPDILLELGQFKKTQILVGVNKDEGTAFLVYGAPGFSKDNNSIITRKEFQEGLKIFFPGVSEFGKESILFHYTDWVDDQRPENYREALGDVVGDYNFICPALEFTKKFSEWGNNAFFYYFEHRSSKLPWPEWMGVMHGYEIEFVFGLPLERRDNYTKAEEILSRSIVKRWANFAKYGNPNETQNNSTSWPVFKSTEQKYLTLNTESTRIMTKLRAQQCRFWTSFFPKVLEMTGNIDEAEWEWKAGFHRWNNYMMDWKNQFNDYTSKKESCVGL

Bacillus subtilis [7] = assay: Antibacterial activity against Bacillus subtilis; assay type: functional
Staphylococcus aureus [8] = assay: microbe, parasite or virus in culture
MDA-MB-231 [9] = assay: cells; assay type: functional, cell-based; details: Homo sapiens
HeLa [10] = assay: Antiproliferative activity against human HeLa cells; assay type: functional, cell-based
Aspergillus niger [11] = assay: Antifungal activity against Aspergillus niger assessed as zone of inhibition at 25 ug/ml; assay type: functional; details: read-out: DIZ
Candida metapsilosis = assay: Antifungal activity against Candida metapsilosis assessed as zone of inhibition at 25 ug/ml; assay type: functional; details: Lodderomyces metapsilosis, read-out: DIZ
Salmonella sp. = assay: Antibacterial activity against Salmonella sp. NCIM 2501 by microdilution broth method; assay type: functional
Proteus vulgaris = assay: Antibacterial activity against Proteus vulgaris NCIM 2813 by microdilution broth method; assay type: functional
Pseudomonas aeruginosa [12] = assay: Antibacterial activity against Pseudomonas aeruginosa NCIM 5029 by microdilution broth method; assay type: functional
Escherichia coli [13] = assay: Antibacterial activity against Escherichia coli NCIM 2931 by microdilution broth method; assay type: functional
Staphylococcus aureus [14] = assay: Antibacterial activity against Staphylococcus aureus NCIM5021 by microdilution broth method; assay type: functional
Bacillus subtilis [15] = assay: Antibacterial activity against Bacillus subtilis by agar well diffusion method; assay type: functional
Staphylococcus aureus [16] = assay: Antibacterial activity against Staphylococcus aureus by disc diffusion method; assay type: functional
Escherichia coli [17] = assay: Antibacterial activity against Escherichia coli by disc diffusion method; assay type: functional
Aspergillus niger [18] = assay: Antifungal activity against Aspergillus niger; assay type: functional
Aspergillus flavus = assay: Antifungal activity against Aspergillus flavus; assay type: functional
MDA-MB-435 = assay: Antiproliferative activity against human MDA-MB-435 cells; assay type: functional, cell-based
HeLa [19] = assay: Cytotoxicity against human HeLa cells; assay type: functional, cell-based

O=C(c1ccc(OCCN2CCC2)cc1)[C@H]1[C@H](c2ccccc2)C2CS[C@H](c3ccccc3)N2C12C(=O)Nc1ccc(Cl)cc12 (stereo partly specified)
pIC50 (MCF7): 5.43 | pIC50 (T47D): 5.33 | pIC50 (MDA-MB-231 [1]): 5.38

C[C@H]1COc2c(N3CCN(C)CC3)c(F)cc3c(=O)c(C(=O)O)cn1c23.C[C@H]1COc2c(N3CCN(C)CC3)c(F)cc3c(=O)c(C(=O)O)cn1c23.O [LEVOFLOXACIN]
MIC (Pseudomonas aeruginosa [2]): > 64 µg/mL | MIC (Pseudomonas aeruginosa [3]): > 64 µg/mL

Cc1ccc([C@H]2[C@@]3(SC(=S)NC3=O)C3CCCN3[C@@]23C(=O)Nc2ccccc23)cc1 (stereo partly specified)
diameter of the inhibition zone (DIZ) (Aspergillus fumigatus): 18 mm | diameter of the inhibition zone (DIZ) [4]: 19 mm | diameter of the inhibition zone (DIZ) (Geotrichum candidum): 27 mm | diameter of the inhibition zone (DIZ) (Candida albicans [5]): 27 mm

Cc1ccc(C2C3CCCN3C3(C(=O)Nc4ccccc43)C2C(=O)c2ccc(-c3ccc(F)cc3F)cc2)cc1 (stereo unspecified)
MIC (Candida albicans [6]): 12.5 µg/mL (≈ 23.4 µM) | MIC (Candida tropicalis): 25 µg/mL (≈ 46.8 µM) | MIC (Nakaseomyces glabratus): 25 µg/mL (≈ 46.8 µM)

O=C(c1ccc(OCCN2CCCC2)cc1)[C@H]1[C@H](c2ccccc2)C2CS[C@H](c3ccccc3)N2C12C(=O)Nc1ccc(F)cc12 (stereo partly specified)
pIC50 (MCF7): 5.27 | pIC50 (T47D): 5.21 | pIC50 (MDA-MB-231 [1]): 5.24

COc1cc2c(cc1OC)C(=O)[C@]1(C2)[C@H](c2ccccc2OC)[C@H](Cc2c[nH]c3ccccc23)NC12C(=O)Nc1ccccc12 (stereo partly specified)
pIC50 (Acetylcholinesterase): 5.56 | pIC50 (Cholinesterase): 4.62

Cc1nn(-c2ccccc2)c2c1C1(C(=O)Nc3ccc(Br)cc31)c1c(C)nn(-c3ccccc3)c1O2
MIC (Bacillus subtilis [7]): 256 µg/mL (≈ 475 µM) | MIC (Staphylococcus aureus [8]): 64 µg/mL (≈ 119 µM)

N#CC1=C(N)Oc2c(ccc3[nH]c4ccccc4c23)C12C(=O)N(Cc1cn(Cc3ccc([N+](=O)[O-])cc3)nn1)c1ccccc12 (stereo unspecified)
pIC50 (MDA-MB-231 [9]): 4.29 | pIC50 (HeLa [10]): 5.20

O=C(c1ccc(-c2ccc(F)cc2F)cc1)C1C(c2ccc(Cl)cc2)C2CCCN2C12C(=O)Nc1ccccc12 (stereo unspecified)
MIC (Candida albicans [6]): 12.5 µg/mL (≈ 22.5 µM) | MIC (Candida tropicalis): 25 µg/mL (≈ 45 µM) | MIC (Nakaseomyces glabratus): 25 µg/mL (≈ 45 µM)

CCOC1=Nc2ccccc2/C1=C\C(=O)c1ccccc1O
zone of inhibition at 25 µg/mL (Aspergillus niger [11]): 10 mm | zone of inhibition at 25 µg/mL (Candida metapsilosis): 11 mm

COc1cc2c(cc1OC)C(=O)[C@]1(C2)[C@H](c2cccc([N+](=O)[O-])c2)[C@H](Cc2c[nH]c3ccccc23)NC12C(=O)Nc1ccccc12 (stereo partly specified)
pIC50 (Acetylcholinesterase): 5.72 | pIC50 (Cholinesterase): 4.55

O=C1Nc2ccccc2[C@@]1(O)[C@@]1(OCc2ccc(Br)cc2)C(=O)Nc2ccccc21
MIC (Salmonella sp.): 0.034 µg/mL (≈ 0.0731 µM) | MIC (Proteus vulgaris): 0.067 µg/mL (≈ 0.144 µM) | MIC (Pseudomonas aeruginosa [12]): 0.067 µg/mL (≈ 0.144 µM) | MIC (Escherichia coli [13]): 0.034 µg/mL (≈ 0.0731 µM) | MIC (Staphylococcus aureus [14]): 0.067 µg/mL (≈ 0.144 µM)

O=C(O)c1cn(C2CC2)c2cc(N3CCNCC3)c(F)cc2c1=O [CIPROFLOXACIN]
MIC (Pseudomonas aeruginosa [2]): 32 µg/mL (≈ 96.6 µM) | MIC (Pseudomonas aeruginosa [3]): 32 µg/mL (≈ 96.6 µM) | MIC (Bacillus subtilis [15]): 6.25 µg/mL (≈ 18.9 µM) | MIC (Staphylococcus aureus [16]): 50 µg/mL (≈ 151 µM) | MIC (Escherichia coli [17]): 25 µg/mL (≈ 75.4 µM)

O=C1NC(=S)S[C@]12C1CCCN1[C@@]1(C(=O)Nc3ccccc31)[C@H]2c1ccccc1 (stereo partly specified)
diameter of the inhibition zone (DIZ) (Aspergillus fumigatus): 16 mm | diameter of the inhibition zone (DIZ) [4]: 14 mm | diameter of the inhibition zone (DIZ) (Geotrichum candidum): 24 mm | diameter of the inhibition zone (DIZ) (Candida albicans [5]): 25 mm

OC(Cn1cncn1)(Cn1cncn1)c1ccc(F)cc1F [FLUCONAZOLE]
MIC (Aspergillus niger [18]): 20 µg/mL (≈ 65.3 µM) | MIC (Aspergillus flavus): 20 µg/mL (≈ 65.3 µM) | diameter of the inhibition zone (DIZ) (Aspergillus fumigatus): 25 mm | diameter of the inhibition zone (DIZ) [4]: 24.1 mm | diameter of the inhibition zone (DIZ) (Geotrichum candidum): 30 mm | diameter of the inhibition zone (DIZ) (Candida albicans [5]): 28 mm

CC/C(=C(\c1ccccc1)c1ccc(OCCN(C)C)cc1)c1ccccc1 [TAMOXIFEN]
pIC50 (T47D): 4.85 | pIC50 (MDA-MB-231 [1]): 4.84 | pIC50 (MDA-MB-435): 7.00

COc1cc2c(cc1OC)C(=O)[C@]1(C2)[C@H](c2ccc(C)cc2)[C@H](Cc2c[nH]c3ccccc23)NC12C(=O)Nc1ccccc12 (stereo partly specified)
pIC50 (Acetylcholinesterase): 4.85 | pIC50 (Cholinesterase): 5.65

COc1ccc(CO[C@]2([C@@]3(O)C(=O)Nc4ccccc43)C(=O)Nc3ccccc32)cc1
MIC (Salmonella sp.): 0.038 µg/mL (≈ 0.0913 µM) | MIC (Proteus vulgaris): 0.075 µg/mL (≈ 0.18 µM) | MIC (Pseudomonas aeruginosa [12]): 0.038 µg/mL (≈ 0.0913 µM) | MIC (Escherichia coli [13]): 0.038 µg/mL (≈ 0.0913 µM) | MIC (Staphylococcus aureus [14]): 0.075 µg/mL (≈ 0.18 µM)

CCN(CC)CCNC(=O)c1c(C)[nH]c(/C=C2\C(=O)Nc3ccc(F)cc32)c1C [SUNITINIB]
pIC50 (HeLa [19]): < 4.52

COC1=CC(=O)C[C@@H](C)[C@]12Oc1c(Cl)c(OC)cc(OC)c1C2=O [GRISEOFULVIN]
zone of inhibition at 25 µg/mL (Aspergillus niger [11]): 10 mm | zone of inhibition at 25 µg/mL (Candida metapsilosis): 10 mm
